# Results reported in ChEMBL document CHEMBL1201862, “PubChem BioAssay data set” (2004).
# Calls of active or inactive are those of the source.
# Key:
# [1] = target: Nonstructural protein 1 (Influenza A virus, UniProt Q194T2); assay type: functional, Influenza A virus (A/California/07/2009(H1N1))
# [2] = target: T1, RNA-binding protein pos-1 (Caenorhabditis elegans, UniProt G5EF15); test: inhibitors of POS-1/mex-3 RNA binding, dose response, biochemical, fluorescence polarization (AID 1964);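 note: purified POS-1 fused to maltose binding protein made in E. coli; potency of compounds blocking POS-1 binding to fluorescent RNA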
# T1 sequence (G5EF15 whole entry): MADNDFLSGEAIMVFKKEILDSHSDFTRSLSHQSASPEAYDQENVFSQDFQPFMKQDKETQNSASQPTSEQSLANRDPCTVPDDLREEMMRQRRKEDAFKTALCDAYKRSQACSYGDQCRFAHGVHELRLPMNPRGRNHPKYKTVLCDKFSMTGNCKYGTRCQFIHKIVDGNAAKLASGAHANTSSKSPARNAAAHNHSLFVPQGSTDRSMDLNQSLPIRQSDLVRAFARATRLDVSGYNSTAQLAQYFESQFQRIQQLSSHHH
# [3] = test system: Streptococcus; test: Group A Streptococcus viability loss, dose response, counter-screen for streptokinase expression inhibitor project, luminescence, BacTiterGlo (AID 1915); assay type: functional, organism-based; settings: Streptococcus;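 note: potency for reduction of bacterial viability or growth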
# [4] = target: T2, Streptokinase A (Streptococcus pyogenes serotype M1, UniProt P10520); test: S. pyogenes streptokinase expression inhibitors, potency, dose response, plasminogen activation absorbance, OD405 (AID 1914); assay type: functional, Streptococcus pyogenes M1 GAS;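 note: secreted streptokinase activity via plasminogen activation per viability signal from cell pellet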
# T2 sequence (P10520 whole entry): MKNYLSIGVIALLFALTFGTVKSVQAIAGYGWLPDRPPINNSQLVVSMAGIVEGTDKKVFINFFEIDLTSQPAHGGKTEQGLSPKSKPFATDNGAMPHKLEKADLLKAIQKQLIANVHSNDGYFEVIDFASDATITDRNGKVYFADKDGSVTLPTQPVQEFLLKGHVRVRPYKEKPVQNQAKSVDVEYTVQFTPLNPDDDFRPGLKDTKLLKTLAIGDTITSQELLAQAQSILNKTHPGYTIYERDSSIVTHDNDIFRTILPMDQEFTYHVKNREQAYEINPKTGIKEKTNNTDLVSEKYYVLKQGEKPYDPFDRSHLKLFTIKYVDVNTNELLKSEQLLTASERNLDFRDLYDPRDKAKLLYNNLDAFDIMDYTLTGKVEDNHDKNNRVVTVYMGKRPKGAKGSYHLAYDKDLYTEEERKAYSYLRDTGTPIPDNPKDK
# [5] = test system: Streptococcus sp. 'group A'; test: growth inhibition of control SK(-) GAS strain, dose response, counter-screen for streptokinase expression inhibitor project, luminescence, kanamycin, BacTiterGlo, confirmation (AID 1900); assay type: functional, organism-based; settings: Streptococcus sp. 'group A'
# [6] = target: T3, Zinc finger protein mex-5 (Caenorhabditis elegans, UniProt Q9XUB2); test: MEX-5/TCR-2 RNA interaction inhibitors, dose response, biochemical, C. elegans, fluorescence polarization (AID 1960)
# T3 sequence (Q9XUB2 whole entry): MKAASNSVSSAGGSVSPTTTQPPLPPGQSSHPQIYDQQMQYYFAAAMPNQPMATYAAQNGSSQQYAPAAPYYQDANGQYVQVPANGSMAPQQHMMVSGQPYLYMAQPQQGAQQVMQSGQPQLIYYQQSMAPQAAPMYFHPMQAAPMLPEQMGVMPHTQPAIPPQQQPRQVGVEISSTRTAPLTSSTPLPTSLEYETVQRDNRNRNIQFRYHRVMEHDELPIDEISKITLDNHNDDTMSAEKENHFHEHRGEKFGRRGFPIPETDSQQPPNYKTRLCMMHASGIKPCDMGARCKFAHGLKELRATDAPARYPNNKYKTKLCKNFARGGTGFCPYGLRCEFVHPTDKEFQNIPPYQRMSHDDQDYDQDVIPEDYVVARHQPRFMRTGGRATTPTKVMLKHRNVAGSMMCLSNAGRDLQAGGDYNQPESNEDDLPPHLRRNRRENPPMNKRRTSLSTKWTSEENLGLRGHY
# [7] = target: T4, fMet-Leu-Phe receptor (Homo sapiens, UniProt P21462); test: FPR ligands, dose response (AID 519); assay type: functional
# T4 sequence (P21462 whole entry): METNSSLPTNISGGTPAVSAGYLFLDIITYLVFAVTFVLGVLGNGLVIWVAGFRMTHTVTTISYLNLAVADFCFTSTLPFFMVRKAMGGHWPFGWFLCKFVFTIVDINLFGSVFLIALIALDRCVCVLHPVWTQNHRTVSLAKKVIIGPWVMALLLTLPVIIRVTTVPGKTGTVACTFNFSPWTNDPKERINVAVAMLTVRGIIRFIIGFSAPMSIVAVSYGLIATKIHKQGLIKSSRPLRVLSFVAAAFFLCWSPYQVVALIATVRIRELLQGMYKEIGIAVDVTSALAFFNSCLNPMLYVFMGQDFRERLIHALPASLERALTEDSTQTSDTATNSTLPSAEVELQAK
# [8] = Luminescence Cell-Based Dose Response to Identify Activators of Luciferase Translation or Activity in H4-C Neuroglioblastoma Cells. [Related pubchem assays: 1829 (Project Summary), 1814 (Primary HTS)]; assay type: functional
# [9] = Luminescence Cell-Based Dose Response to Identify Activators of 5'UTR Stem-Loop Driven Prion Protein mRNA Translation in H4-C Neuroglioblastoma Cells. [Related pubchem assays: 1829 (Project Summary), 1814 (Primary HTS)]; assay type: functional
# [10] = Luminescence Cell-Based Dose Confirmation to Identify Activators of 5'UTR Stem-Loop Driven Alpha-Synuclein mRNA Translation in H4 Neuroglioblastoma Cells. [Related pubchem assays: 1829 (Project Summary), 1814 (Primary HTS)]; assay type: functional
# [11] = test system: H4; test: Luminescence Cell-Based Dose Response HTS to Identify Activators of 5'UTR Stem-Loop Driven Prion Protein mRNA Translation in H4 Neuroglioblastoma Cells. [Related pubchem assays: 1829 (Project Summary), 1814 (Primary HTS)]; assay type: functional; settings: Homo sapiens
# [12] = Luminescence Cell-Based Dose Response HTS to Identify Activators of Luciferase Translation or Activity in H4 […] Cells. [Related pubchem assays: 1829 (Project Summary), 1814 (Primary HTS)]; assay type: functional
# [13] = P. falciparum ATP4 D1247Y mutant growth inhibitors, dose response, NITD609-resistant line, SYBR Green, dry powder (AID 1159571); assay type: functional, cell-based;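 note: parasites synchronized at ring stage by sorbitol before testing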
# [14] = P. falciparum Dd2 growth inhibitors, dose response, SYBR Green, dry powder samples (AID 1159566); assay type: functional, cell-based;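 note: potency for growth inhibition with lower SYBR green DNA signal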
# [15] = P. falciparum Dd2 growth inhibitors, dose response, SYBR Green, cherry-picked samples (AID 1159567); assay type: functional, cell-based
# [16] = HepG2 cell cytotoxicity, dose response, cytotoxicity control, plate reader, dry powder samples (AID 1159569); assay type: functional, cell-based;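 note: inhibitor potency with signal falling toward the positive control level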
# [17] = P. falciparum 3D7-ScDHODH growth inhibitors, dose response, SYBR Green, dry powder samples (AID 1159570); assay type: functional, cell-based;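 note: parasite growth measured after 72 hours of compound exposure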
# [18] = target: T5, Caspase-6 (Homo sapiens, UniProt P55212); test: human caspase-6 inhibitors, dose response, biochemical, VEID-R110 fluorescence, cherry-pick (AID 720632)
# T5 sequence (P55212 whole entry): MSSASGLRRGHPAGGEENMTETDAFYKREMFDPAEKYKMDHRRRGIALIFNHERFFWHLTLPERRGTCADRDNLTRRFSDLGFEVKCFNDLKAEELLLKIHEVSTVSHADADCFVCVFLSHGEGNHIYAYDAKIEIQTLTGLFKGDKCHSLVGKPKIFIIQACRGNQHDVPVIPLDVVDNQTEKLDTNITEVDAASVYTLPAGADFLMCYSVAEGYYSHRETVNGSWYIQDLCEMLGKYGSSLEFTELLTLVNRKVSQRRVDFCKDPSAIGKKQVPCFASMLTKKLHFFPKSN
# [19] = HepG2 cell cytotoxicity, dose response, cytotoxicity control, cherry-picked samples (AID 1159577); assay type: functional, cell-based
# [20] = target: Estrogen receptor beta (Homo sapiens, UniProt Q92731);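 note: recombinant ER-beta bound to coactivator SRC1 peptide in presence of estradiol agonist; inhibitors block coactivator peptide binding and lower the FRET signal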
# Chain of Estrogen receptor beta (Q92731 whole entry): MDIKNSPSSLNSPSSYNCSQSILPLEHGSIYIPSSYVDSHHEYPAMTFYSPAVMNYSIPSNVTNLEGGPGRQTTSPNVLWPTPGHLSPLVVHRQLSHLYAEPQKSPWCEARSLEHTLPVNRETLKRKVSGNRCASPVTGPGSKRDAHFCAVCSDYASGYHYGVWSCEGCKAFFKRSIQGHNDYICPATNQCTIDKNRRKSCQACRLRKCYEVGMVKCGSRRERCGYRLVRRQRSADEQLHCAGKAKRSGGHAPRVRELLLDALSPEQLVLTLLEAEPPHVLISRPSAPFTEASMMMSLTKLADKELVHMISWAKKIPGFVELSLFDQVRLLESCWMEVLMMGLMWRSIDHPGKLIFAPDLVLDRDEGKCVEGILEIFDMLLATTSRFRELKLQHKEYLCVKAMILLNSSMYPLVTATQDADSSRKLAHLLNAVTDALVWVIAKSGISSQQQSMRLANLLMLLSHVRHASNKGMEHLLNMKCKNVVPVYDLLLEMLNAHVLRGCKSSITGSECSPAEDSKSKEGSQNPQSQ
# [21] = test system: H9c2; test: cells; assay type: functional, cell-based; settings: Rattus norvegicus, H9c2, Myocardium;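 note: confirmatory concentration-response retest of ultra-high-throughput screening hits for modulation of myocardial damage; cell death induced by hydrogen peroxide oxidative stress; compound pretreatment for 60 min then peroxide exposure for 2 h; potency is for protecting the cells against peroxide damage rather than for killing them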
# [22] = Luminescence Cell-Based Dose Confirmation HTS to Identify Activators of 5'UTR Stem-Loop Driven Alpha-Synuclein mRNA Translation in H4 Neuroglioblastoma Cells. [Related pubchem assays: 1829 (Project Summary), 1814 (Primary HTS)]; assay type: functional
# [23] = target: T6, Calpain-2 catalytic subunit (Sus scrofa, UniProt P43367); test: pig calpain II inhibitor potency, dose response, biochemical, fluorogenic peptide substrate (AID 1420); assay type: functional
# T6 sequence (P43367 whole entry): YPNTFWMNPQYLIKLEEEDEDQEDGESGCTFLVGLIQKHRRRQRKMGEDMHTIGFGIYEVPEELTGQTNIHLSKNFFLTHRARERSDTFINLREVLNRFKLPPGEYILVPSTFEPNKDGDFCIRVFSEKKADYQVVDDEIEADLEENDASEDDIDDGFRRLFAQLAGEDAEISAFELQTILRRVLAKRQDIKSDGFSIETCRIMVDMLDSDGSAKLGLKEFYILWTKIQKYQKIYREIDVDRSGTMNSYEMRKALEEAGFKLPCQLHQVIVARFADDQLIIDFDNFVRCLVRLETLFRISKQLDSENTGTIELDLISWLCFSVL
# [24] = test system: INS1; test: beta cell apoptosis inhibitors, cytokine rescue, dose response, luminescence, retest (AID 449756); assay type: functional, cell-based; settings: Rattus norvegicus;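 note: cell death triggered by IL-1 beta plus TNF-alpha plus IFN-gamma mixture; protective hits raise ATP signal compared with cytokine alone wells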
# [25] = target: Heat shock protein HSP 90-alpha (Homo sapiens, UniProt P07900); assay type: functional, organism-based
# [26] = THP-1 cell cytotoxicity, dose response, cytotoxicity control for Vif-APOBEC3G degradation inhibitor project, THP-1 cells (AID 1117359); assay type: functional; settings: Human immunodeficiency virus 1, THP-1
# [27] = cytotoxicity toward NIH3T3 fibroblasts, dose response, counter-screen, cell-based, ATP luminescence, mouse fibroblasts (AID 2010); assay type: functional;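 note: cells exposed to compound for about 90 hours before reading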
# [28] = inhibitors of intracellular T. cruzi replication, confirmation, NIH3T3 host cells, beta-gal luminescence (AID 2044); assay type: functional, cell-based;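 note: intracellular parasites grown in NIH/3T3 mouse fibroblasts as host cells; luminescent beta-galactosidase reporter signal from transgenic T. cruzi replicating inside host cells; inhibitors lower the luminescence signal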
# [29] = target: T7, Mannose-6-phosphate isomerase (Homo sapiens, UniProt P34949); test: human PMI inhibitors, high substrate, primary screen, biochemical, fluorescence intensity, high mannose 6-phosphate (AID 1220)
# T7 sequence (P34949 whole entry): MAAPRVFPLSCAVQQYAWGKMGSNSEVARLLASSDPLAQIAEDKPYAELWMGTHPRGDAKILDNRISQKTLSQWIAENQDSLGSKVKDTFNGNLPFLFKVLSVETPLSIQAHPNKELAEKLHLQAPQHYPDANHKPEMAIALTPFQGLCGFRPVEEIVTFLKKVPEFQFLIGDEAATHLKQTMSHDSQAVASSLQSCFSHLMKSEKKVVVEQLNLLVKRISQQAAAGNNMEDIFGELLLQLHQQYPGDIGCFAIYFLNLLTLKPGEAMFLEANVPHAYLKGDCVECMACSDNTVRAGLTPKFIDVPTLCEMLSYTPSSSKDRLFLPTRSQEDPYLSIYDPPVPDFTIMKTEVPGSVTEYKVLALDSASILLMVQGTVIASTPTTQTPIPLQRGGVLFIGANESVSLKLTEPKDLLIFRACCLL
# [30] = target: T7, Mannose-6-phosphate isomerase; test: inhibitors of human PMI, primary screen, biochemical, fluorescence intensity, coupled assay (AID 1209)
# Chain of Nonstructural protein 1 (Q194T2 whole entry, the tested form may be a part): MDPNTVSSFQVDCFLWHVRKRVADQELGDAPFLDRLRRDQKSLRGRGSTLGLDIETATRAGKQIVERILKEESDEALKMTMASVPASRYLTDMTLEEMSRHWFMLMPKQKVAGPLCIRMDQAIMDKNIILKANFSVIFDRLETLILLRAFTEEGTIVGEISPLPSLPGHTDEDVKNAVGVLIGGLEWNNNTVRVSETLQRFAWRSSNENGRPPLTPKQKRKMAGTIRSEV
compound,measurement,setting,value
CCN(CC)c1ccc(/C=N/C(C#N)=C(\N)C#N)cc1,IC50,[1],> 100 µM (active)
same,EC50,[2],281 µM (active)
same,EC50,[3],> 150 µM (not active)
same,EC50,[4],> 150 µM (not active)
same,EC50,[5],> 150 µM (not active)
same,EC50,[6],114 µM (inconclusive)
same,Ki,[7],> 66.7 µM (inactive)
Nc1c(-c2cccc(Cl)c2)cnc2c(-c3ccccc3)cnn12,EC50,[8],1.15 µM (active)
same,EC50,[9],0.478 µM (active)
same,EC50,[10],0.321 µM (active)
same,EC50,[11],0.785 µM (active)
same,EC50,[12],< 0.1 µM (inconclusive)
COc1ccc(CN2C[C@H](C)[C@@H](OC)CN(C)C(=O)c3ccc(NC(=O)c4nc5ccccc5s4)cc3OC[C@@H]2C)cc1,AC50,[13],3.82 µM (active)
same,AC50,[14],2.64 µM (active)
same,AC50,[15],2.9 µM (active)
same,AC50,[16],67.3 µM (active)
same,AC50,[17],5.03 µM (active)
CCOC(=O)N1CCN(C(C(=O)NC2CCCC2)C(C)C)CC1 (stereo not drawn),AC50,[18],12.2 µM (active)
c1ccc(CN2C[C@@H]3N[C@H](C2)[C@@H]3c2ccc(-c3ccncc3)cc2)cc1,AC50,[19],> 39 µM (inactive)
same,AC50,[13],1.66 µM (active)
same,AC50,[14],1.54 µM (active)
same,AC50,[15],2.35 µM (active)
same,AC50,[16],18 µM (active)
same,AC50,[17],3.96 µM (active)
O=C(O)CC(Cn1nnnc1S)c1ccccc1 (stereo not drawn),IC50,[20],> 50 µM (not active)
CSc1nc(O)c2c(n1)N=C1CCCC(O)=C1C2c1cccs1 (stereo not drawn),IC50,[20],11.4 µM (active)
CCOC(=O)C1=C(COC(=O)c2ccc([N+](=O)[O-])o2)NC(=O)NC1C (stereo not drawn),AC50,[18],30 µM (active)
same,IC50,[21],> 79 µM (inactive)
Cc1ccc(NC2=C/C(=N/S(=O)(=O)c3cccs3)c3ccccc3C2=O)cc1C,EC50,[22],0.181 µM (active)
same,EC50,[8],0.43 µM (active)
same,EC50,[9],0.348 µM (active)
same,EC50,[10],0.318 µM (active)
same,IC50,[23],22.3 µM (not active)
same,AC50,[24],1.56 µM (active)
same,EC50,[11],< 0.1 µM (active)
same,EC50,[12],< 0.1 µM (active)
O=[N+]([O-])c1cc(CN2CCN(c3cccc(C(F)(F)F)c3)CC2)c2cccnc2c1O,AC50,[18],33.8 µM (active)
same,AC50,[25],3.53 µM (active)
same,CC50,[26],2.18 µM (active)
same,EC50,[27],4.99 µM (active)
same,EC50,[28],0.493 µM (active)
COc1cc(NC(C)=O)c2ncccc2c1[N+](=O)[O-],IC50,[29],> 50 µM (not active)
same,IC50,[30],> 50 µM (not active)
C[C@H]1CN([C@@H](C)CO)C(=O)c2c(c3ccccc3n2C)-c2ccccc2CO[C@@H]1CN(C)Cc1ccc(Cl)c(Cl)c1,AC50,[13],1.87 µM (active)
same,AC50,[14],1.43 µM (active)
same,AC50,[15],1.94 µM (active)
same,AC50,[16],18.4 µM (active)
same,AC50,[17],3.11 µM (active)
